Laboratory results reported in patent EP0498222A1, “Novel peptides” (SUMITOMO CHEMICAL COMPANY LIMITED, priority 1991, dated 1992).
Positions of bridges follow the written chain, without caps; N, C: chain ends. Residues, ends and D or L forms follow the SMILES beside them.

Legend:
[1] = system: unparasitized last instar larvae of Pseudaletia separata; test: Insect development controlling activity (growth stage checked at 24-hour intervals); type: in vivo; conditions: 7 picomoles injected on day 1 and day 2; control Ringer's solution
Description: The purified peptide I-a was dissolved with Ringer's solution and injected, at a dose of 7 picomoles, into unparasitized last instar larvae of Pseudaletia separata on day 1 and day 2. Then the growth stage (larva, prepupa, pupa, or dead) of each larva was checked at 24-hour intervals and the number of individuals in each stage was recorded. Control larvae were injected with Ringer's solution alone.

[2] = system: last instar larvae of Pseudaletia separata; test: Effect on growth (body weight) of last instar larvae after injection; type: in vivo; conditions: 7 picomoles injected on day 0, day 1 and day 2 of last instar; weight checked until day 3; control about 2.5 times day 0 weight on day 3
Description: To examine the effect of peptide I-a on the growth of last instar larvae of Pseudaletia separata, last instar larvae of P. separata were injected with 7 picomoles of peptide I-a for consecutive three days (day 0, day 1 and day 2). They were reared on an artificial diet and the weight of each larva was checked until day 3. […] The open circles ( ⃝) indicate the body weights of the last instar larvae injected with 7 picomoles of peptide I-a on day 0, day 1 and day 2 while the closed circles (●) indicate the body weights of last instar larvae injected with Ringer's solution on day 0, day 1 and day 2.

[3] = system: JH esterase; test: JH esterase activity assay of hemolymph from injected larvae, (10-3H)JH I as substrate; type: in vivo, Pseudaletia separata; conditions: predetermined doses injected on day 1 and day 2; hemolymph collected on day 3
Description: The purified peptide I-a was diluted with Ringer's solution and injected, at a predetermined dose, into unparasitized last instar larvae of Pseudaletia separata on day 1 and day 2. The larvae were further reared on an artificial diet. On day 3, hemolymph was prepared from the larvae and centrifuged (500 x g, 4°C, 5 minutes). The supernatant thus collected was subjected to JH esterase activity assay. (10-³H)JH I was used as the substrate for activity assay and the JH-metabolizing activity was estimated based on the proportion of JH acid to the total product formed under the action of JH esterase.

CSCC[C@@H]1NC(=O)[C@H](Cc2ccc(O)cc2)NC(=O)CNC(=O)[C@H](C)NC(=O)[C@H](C(C)C)NC(=O)[C@@H](NC(=O)CNC(=O)CNC(=O)[C@H](CO)NC(=O)[C@H](Cc2ccccc2)NC(=O)[C@H](CC(N)=O)NC(=O)[C@@H](N)CCC(=O)O)CSSC[C@@H](C(=O)N[C@@H](CCCCN)C(=O)N2CCC[C@H]2C(=O)N[C@H](C(=O)N[C@@H](Cc2ccccc2)C(=O)N[C@@H](Cc2ccc(O)cc2)C(=O)N[C@@H](CCC(N)=O)C(N)=O)[C@@H](C)O)NC(=O)[C@H](CCCNC(=N)N)NC(=O)CNC(=O)[C@H](CC(=O)O)NC(=O)[C@@H]2CCCN2C(=O)[C@H]([C@@H](C)O)NC(=O)[C@H](CCCNC(=N)N)NC1=O [peptide I-a] (H-ENFSGGCVAGYMRTPDGRCKPTFYQ-NH2; disulfide 7-19)
prepupal stage came later than in control larvae [1]: 2 days
pupation later than in control larvae [1]: more than 2 days
body weight change [2]: only slight increases in body weight
JH esterase activity [3]: repressed the JH esterase activity in a dose dependent manner
